Read-outs that look alike come from different tables or passages of the source.
Tests used:
VDR [1] = target: T1, VDR (Homo sapiens, UniProt P11473); assay: Gal4‐VDR hybrid reporter gene assay, antagonist mode (vs. 0.3 µM calcitriol (2)); format: cell-based; conditions: dark‐adapted (E)‐state; vs. 0.3 µM 2 (calcitriol); read-out: VDR modulation dark (E): IC50 (antagonist mode)
T1 construct: -CMV-VDR-LBD coding for the hinge region and; expressed in transfected cells; host or cells: HEK293T
T1 sequence (P11473 127-423 limits assumed): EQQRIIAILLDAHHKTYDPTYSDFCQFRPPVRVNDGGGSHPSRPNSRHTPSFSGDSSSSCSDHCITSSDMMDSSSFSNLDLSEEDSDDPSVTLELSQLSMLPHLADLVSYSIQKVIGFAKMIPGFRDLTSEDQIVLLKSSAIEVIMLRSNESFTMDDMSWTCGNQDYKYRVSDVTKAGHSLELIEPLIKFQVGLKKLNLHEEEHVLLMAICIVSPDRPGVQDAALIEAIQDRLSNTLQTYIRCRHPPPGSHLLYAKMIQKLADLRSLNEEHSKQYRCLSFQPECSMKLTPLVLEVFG
Procedure: (§1) FIGURE 2 Development and characterization of the light‐activated vitamin D mimetic photo‐vitD (10). (a) Structure activity relationship of photo‐switchable VDR agonists 4–10. Compounds were tested in a cellular Gal4‐VDR hybrid reporter gene assay. Relative activation is normalized to the effect of 2 (1 µM) set as 100% activation. The (Z)‐states of the compounds were maintained with a Cell‐Disco [24] (370 nm). […] Data in agonist (EC50) and antagonist mode (IC50; vs. 0.3 µM 2) are shown for (E)‐ and (Z)‐10. The corresponding dose‐response curves are shown in (d). (b) Predicted binding mode of (E)‐7 (green) in the VDR ligand binding site (pdb ID 4g1d). […] (c) Predicted binding mode of (Z)‐10 (yellow) in the VDR ligand binding site. The altered regiochemistry conveys strong preference for the light‐induced (Z)‐configuration and the extended naphthoic acid motif enables a strong ionic contact to R302. (d) Dose‐response curves of (E)‐ (dark) and (Z)‐10 (370 nm) in the Gal4‐VDR reporter gene assay in agonist (top) and antagonist mode (bottom, with 0.3 µM calcitriol (2)). (Z)‐10 activated VDR; (E)‐10 and (Z)‐10 antagonized VDR activation by 0.3 µM calcitriol (2). (Z)‐10 was maintained with a Cell‐Disco [24] (370 nm). […] Absorbance was measured at 351 nm with a 25 µM solution in DMSO, one cycle is 30 sec. […] (E)/(Z) ratios were measured by NMR. […]

[2] = photophysical characterization (photo‐switching, thermal relaxation); format: physicochemical; conditions: alternating irradiation at 365 and 465 nm; 25 µM solution in DMSO
Procedure: as §1

[3] = test system: nuclear receptors related to VDR; assay: panel of uniform Gal4‐NR hybrid reporter gene assays (selectivity); format: cell-based, human; conditions: 1 µM; both (E)‐ and (Z)‐configuration; (Z) maintained with Cell‐Disco (370 nm)
Procedure: as §1

VDR [4] = target: T1, VDR; assay: Gal4‐VDR hybrid reporter gene assay, agonist mode; format: cell-based; conditions: HEK293T cells, mean±S.E.M., n≥3
Procedure: FIGURE 2 Development and characterization of the light‐activated vitamin D mimetic photo‐vitD (10). (a) Structure activity relationship of photo‐switchable VDR agonists 4–10. Compounds were tested in a cellular Gal4‐VDR hybrid reporter gene assay. Relative activation is normalized to the effect of 2 (1 µM) set as 100% activation. The (Z)‐states of the compounds were maintained with a Cell‐Disco [24] (370 nm). […] Data in agonist (EC50) and antagonist mode (IC50; vs. 0.3 µM 2) are shown for (E)‐ and (Z)‐10. The corresponding dose‐response curves are shown in (d). (b) Predicted binding mode of (E)‐7 (green) in the VDR ligand binding site (pdb ID 4g1d). […] (c) Predicted binding mode of (Z)‐10 (yellow) in the VDR ligand binding site. The altered regiochemistry conveys strong preference for the light‐induced (Z)‐configuration and the extended naphthoic acid motif enables a strong ionic contact to R302. (d) Dose‐response curves of (E)‐ (dark) and (Z)‐10 (370 nm) in the Gal4‐VDR reporter gene assay in agonist (top) and antagonist mode (bottom, with 0.3 µM calcitriol (2)). (Z)‐10 activated VDR; (E)‐10 and (Z)‐10 antagonized VDR activation by 0.3 µM calcitriol (2). (Z)‐10 was maintained with a Cell‐Disco [24] (370 nm). Data are the mean±S.E.M. relative VDR act. vs. 0.3 µM calcitriol (2), n≥3. (e) Activity profile of 10 (1 µM) on nuclear receptors showing exclusive VDR activation by the light‐activated state. 10 was tested in a panel of uniform Gal4‐NR hybrid reporter gene assays. (Z)‐10 was maintained with a Cell‐Disco [24] (370 nm). Data are the mean±SD, n = 3. (f) Representative UV/Vis spectra of 10 as (E)‐ (dark) and (Z)‐states (PSS 365 nm), and after switching back to (E) with 465 nm. (g) (E)/(Z)‐ratios of 10 in the dark‐adapted state, after illumination at 365 nm for 5 min and after switching back from mostly‐(Z) with 465 nm for 5 min. (h) 10 could be rapidly and reversibly switched between the (E)‐ and (Z)‐states over multiple cycles by alternating irradiation at 365 and 465 nm. Absorbance was measured at 351 nm with a 25 µM solution in DMSO, one cycle is 30 sec. […] 10 was pre‐illuminated at 365 nm for 30 min and then kept in the dark. (E)/(Z) ratios were measured by NMR. (j) Binding mode prediction of (E)‐ and (Z)‐10 to the VDR‐antagonist complex 2zxm (residues numbered according to [21]). (Z)‐10 (yellow) forms an agonist‐like binding mode with several polar interactions at both ends of the pocket. (E)‐10 (cyan) is also anchored at the distal end of the pocket by an H‐bond network with R302 and the D176 backbone but due to the (E)‐configuration, the β‐naphthoic acid residue protrudes deeper and the pentan‐3‐ol motif rotates away from H333/H423. Therefore, (E)‐10 lacks stabilizing/activating contacts with the H333/H423 region rationalizing its antagonist properties.
Gal4-hybrid reporter gene assays. Reporter gene assays were performed in HEK293T cells (German Collection of Microorganisms and Cell Culture GmbH, DSMZ) as reported previously using Gal4 -NR LBD fusion receptor plasmids each coding for the hinge region and LBD of the canonical isoform of the respective human nuclear receptor.[7,8] pFR-Luc (Stratagene, La Jolla, CA, USA) served as a reporter plasmid and pRL-SV40 (Promega, Madison, WI, USA) was used for normalization of transfection efficiency and test compound toxicity. Cells were cultured in Dulbecco’s modified Eagle’s medium (DMEM), high glucose supplemented with 10% fetal calf serum (FCS), sodium pyruvate (1 mM), penicillin (100 U/mL), and streptomycin (100 μg/mL) at 37 °C and 5% CO2, and seeded in 96-well plates (3 × 10^4 cells/well). After 24 h, the medium was changed to Opti -MEM without supplements, and cells were transiently transfected using Lipofectamine LTX reagent (Invitrogen, Carlsbad, CA, USA) according to the manufacturer’s protocol. Five hours after transfection, cells were incubated with the test compounds […]

With `CCCc1cc(C(O)(CC)CC)ccc1-c1ccc(/N=N/c2ccc3cc(C(=O)O)ccc3c2)cc1C` [compound 10] the IC50 (VDR [1]) was 600 ± 100 nM, the “reversible switching between (E)‐ and (Z)‐states over multiple cycles” value [2] was “no fatigue” and the “activity on nuclear receptors related to VDR” value [3] was “no activity”. For the same compound, the EC50 (VDR [4]; (Z)‐state maintained with Cell‐Disco (370 nm), read-out: VDR modulation light-activated (Z): EC50) was 170 nM and the EC50 (VDR [4]; dark‐adapted (E)‐state, read-out: VDR modulation dark (E): EC50) was > 10000 nM.

Source: paper PMC13360702, “An Agonist/Antagonist Photo‐Switchable Vitamin D Mimetic Enables Bidirectional Optical Control of VDR” (Angewandte Chemie (International Ed. in English), 2026)
